Measured values reported in patent US7417062B2, “Substituted arylamides” (ChemoCentryx, Inc., priority 2004, dated 2008).
pIC50: −log10 of the molar value.

Biological target: T1, CCXCKR2 receptor (Homo sapiens, UniProt P25106)
T1 construct: host or cells: MCF-7 (endogenous) and/or MDA-MB-435S transfected with hRDC1 in pcDNA3.1(+)
Assay: Displacement of 125I-labeled SDF-1 from the CCXCKR2 receptor (radioligand binding, determination of IC50 values)
Conditions: MCF-7 and/or MDA-MB-435S cells expressing CCXCKR2; 125I SDF-1; 3 hr at 4° C.; read-out: Activity (ability to displace 125I SDF-1 from CCXCKR2)
How it was run: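 Whole-cell filtration binding on MCF-7 and/or MDA-MB-435S cells stably transfected with human CCXCKR2, with compounds at multiple concentrations competing with 125I-SDF-1. Incubation was 3 hr at 4° C in HEPES buffer (CaCl2, MgCl2, 0.2% BSA, pH 7.1). Bound radioactivity was collected on PEI-treated GF/B filters and counted by scintillation to give IC50.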

T1 sequence (P25106 whole entry): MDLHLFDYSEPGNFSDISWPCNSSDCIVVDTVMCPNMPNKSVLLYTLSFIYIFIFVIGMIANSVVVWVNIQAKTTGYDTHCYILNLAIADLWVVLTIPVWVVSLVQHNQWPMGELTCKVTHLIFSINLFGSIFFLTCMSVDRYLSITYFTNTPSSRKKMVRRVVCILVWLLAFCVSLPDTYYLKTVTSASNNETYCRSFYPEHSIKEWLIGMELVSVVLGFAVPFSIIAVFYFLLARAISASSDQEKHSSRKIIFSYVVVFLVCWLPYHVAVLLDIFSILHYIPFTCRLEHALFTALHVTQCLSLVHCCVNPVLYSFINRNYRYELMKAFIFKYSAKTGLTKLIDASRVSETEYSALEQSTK

Row | SMILES | pIC50
1 | COc1cc(C(=O)N(C[C@@H]2C[C@@H]3CCCC[C@@H]3N2)C(C)c2cc3ccccc3cn2)cc2c1OC(C)(C)O2 (stereo partly drawn) [Example 66, 7-Methoxy-2,2-dimethyl-benzo[1,3]dioxole-5-carboxylic acid (1-isoquinolin-3-yl-ethyl)-[(2S,3aS,7aS)-1-(octahydro-indol-2-yl)methyl]-amide] | > 6.30
2 | COc1cc(C(=O)N(Cc2cnc3ccccc3n2)C[C@@H]2CCCN2C2CCC2)cc2c1OC(C)(C)O2 [Example 67, 7-Methoxy-2,2-dimethyl-benzo[1,3]dioxole-5-carboxylic acid ((S)-1-cyclobutyl-pyrrolidin-2-ylmethyl)-quinoxalin-2-ylmethyl-amide] | > 5.70
3 | COc1cc(C(=O)N(Cc2cnc3ccccc3n2)C[C@@H]2C[C@@H]3CCCC[C@@H]3N2)cc2c1OC(C)(C)O2 [Example 68, 7-Methoxy-2,2-dimethyl-benzo[1,3]dioxole-5-carboxylic acid [(2S,3aS,7aS)-1-(octahydro-indol-2-yl)methyl]-quinoxalin-2-ylmethyl-amide] | > 6.30
4 | COc1cc(C(=O)N(Cc2ccc3ccccc3[n+]2[O-])C[C@@H]2CCCN2C2CCC2)cc2c1OC(C)(C)O2 [Example 69, 7-Methoxy-2,2-dimethyl-benzo[1,3]dioxole-5-carboxylic acid ((S)-1-cyclobutyl-pyrrolidin-2-ylmethyl)-(1-oxy-quinolin-2-ylmethyl)-amide] | > 5.00
5 | COc1cc(C(=O)N(Cc2ccc3ccccc3n2)C[C@@H]2C[C@@H]3CCCC[C@@H]3N2)cc2c1OC(C)(C)O2 [Example 70, 7-Methoxy-2,2-dimethyl-benzo[1,3]dioxole-5-carboxylic acid [(2S,3aS,7aS)-1-(octahydro-indol-2-yl)methyl]-quinolin-2-ylmethyl-amide] | > 6.30
6 | COc1cc(C(=O)N(C[C@@H]2C[C@@H]3CCCC[C@@H]3N2)C(C)c2ccc3ccccc3n2)cc2c1OC(C)(C)O2 (stereo partly drawn) [Example 71, 7-Methoxy-2,2-dimethyl-benzo[1,3]dioxole-5-carboxylic acid [(2S,3aS,7aS)-1-(octahydro-indol-2-yl)methyl]-(1-quinolin-2-yl-ethyl)-amide] | > 6.30
7 | COc1cc(C(=O)N(Cc2ccc3cc(F)ccc3n2)C[C@@H]2C[C@@H]3CCCC[C@@H]3N2)cc2c1OC(C)(C)O2 [Example 72, 7-Methoxy-2,2-dimethyl-benzo[1,3]dioxole-5-carboxylic acid (6-fluoro-quinolin-2-ylmethyl)-[(2S,3aS,7aS)-1-(octahydro-indol-2-yl)methyl]-amide] | > 6.30
8 | COc1cc(C(=O)N(Cc2ccc3cc(Cl)ccc3n2)C[C@@H]2C[C@@H]3CCCC[C@@H]3N2)cc2c1OC(C)(C)O2 [Example 73, 7-Methoxy-2,2-dimethyl-benzo[1,3]dioxole-5-carboxylic acid (6-chloro-quinolin-2-ylmethyl)-[(2S,3aS,7aS)-1-(octahydro-indol-2-yl)methyl]-amide] | > 6.30
9 | COc1cc(C(=O)N(Cc2cc3ccccc3nn2)C[C@@H]2CCCN2C2CCC2)cc2c1OC(C)(C)O2 [Example 74, 7-Methoxy-2,2-dimethyl-benzo[1,3]dioxole-5-carboxylic acid cinnolin-3-ylmethyl-((S)-1-cyclobutyl-pyrrolidin-2-ylmethyl)-amide] | > 5.70
10 | COc1ccc(C(=O)N(C[C@@H]2CCCN2CC2CCCCC2)c2cccc(-n3cccn3)c2)cc1OC [Example 75, N-((S)-1-Cyclohexylmethyl-pyrrolidin-2-ylmethyl)-3,4-dimethoxy-N-(3-pyrazol-1-yl-phenyl)-benzamide] | > 5.00
11 | COc1ccc(C(=O)N(C[C@@H]2CCCN2CC2CCCCC2)c2cccc(-n3ccnn3)c2)cc1OC [Example 76, N-((S)-1-Cyclohexylmethyl-pyrrolidin-2-ylmethyl)-3,4-dimethoxy-N-(3-[1,2,3]triazol-1-yl-phenyl)-benzamide] | > 5.00
12 | COc1cc(C(=O)N(Cc2nc(-c3ccccc3)c(C(F)(F)F)s2)C[C@@H]2C[C@@H]3CCCC[C@@H]3N2)cc2c1OC(C)(C)O2 [Example 77, 7-Methoxy-2,2-dimethyl-benzo[1,3]dioxole-5-carboxylic acid [(2S,3aS,7aS)-1-(octahydro-indol-2-yl)methyl]-(4-phenyl-5-trifluoromethyl-thiazol-2-ylmethyl)-amide] | > 6.30
13 | COc1cc(C(=O)N(Cc2nc(-c3ccccc3)sc2Cl)C[C@@H]2C[C@@H]3CCCC[C@@H]3N2)cc2c1OC(C)(C)O2 [Example 79, 7-Methoxy-2,2-dimethyl-benzo[1,3]dioxole-5-carboxylic acid (5-chloro-2-phenyl-thiazol-4-ylmethyl)-[(2S,3aS,7 aS)-1-(octahydro-indol-2-yl)methyl]-amide] | > 6.30
